# Experiments:
# [1] = biological target: T1, Full-length (FL)-PRMT5-MEP50 enzyme complex (Homo sapiens, UniProt O14744); assay: PRMT5-MEP50 Enzyme Methylation Assay (Version B); type: biochemical
# T1 construct: Full-length (FL)-PRMT5-MEP50 enzyme complex (recombinant proteins from baculovirus-transfected Sf21 cells: FL-PRMT5; MW=73837 kDa and FL-MEP50; MW=38614); made in house; host or cells: baculovirus-transfected Sf21 cells
# Protocol: PRMT5-MEP50 Enzyme Methylation Assay (Version B)
# PRMT5/MEP50 biochemical assay is a direct measurement of the methylation activity of the enzyme complex on a short peptide substrate derived from the N-terminus of H4 histone. Methylation experiment was performed with recombinant protein. The assessment of inhibitory effect (IC50) of small molecules was measured by the effectiveness of the compounds to inhibit this reaction.
# In this assay, the potency (IC50) of each compound was determined from a twenty-point (1:2 serial dilution; top compound concentration of 100000 nM) titration curve using the following outlined procedure. To each well of a white ProxiPlus 384 well-plate, 100 nL of compound (1% DMSO in final assay volume of 10 μL) was dispensed, followed by the addition of 8 μL of 1× assay buffer (50 mM Bicine pH 8.0, 1 mM DTT, 0.004% Tween20, 0.01% BSA) containing 0.5 nM of Full-length (FL)-PRMT5-MEP50 enzyme complex (recombinant proteins from baculovirus-transfected Sf21 cells: FL-PRMT5; MW=[…] and FL-MEP50; MW=38614). Plates were sealed and placed in a 37° C. humidified chamber for 30 minutes pre-incubation with compounds. Subsequently, each reaction was initiated by the addition of 2 μL 1× assay buffer containing 75 nM biotinylated H4R3 (Me1) peptide, and 15 μM S-(5′-Adenosyl)-L-Methionine Chloride (SAM). The final reaction in each well of 10 μL consists of 0.5 nM PRMT5-MEP50, 75 nM biotinylated-peptide, and 15 μM SAM. Methylation reactions were allowed to proceed for 150 minutes in a sealed plate at 37° C. Reactions were immediately quenched by the addition of 1 μL of 10% formic acid. Plates were then frozen and shipped to SAMDI™ Tech Inc. to determine the percent conversion from […]. EC50 values were determined by non-linear regression according to models for either sigmoidal (4 parameters) or biphasic (7 parameters) dose-response curves.
# [2] = system: symmetric dimethylation of arginine (SDMA) of PRMT5 substrates in MCF-7 cells; assay: PRMT5 Cell Target Engagement (TE) Assay; type: cell-based; conditions: 3 days treatment, SDMA high content imaging
# Procedure, shortened: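 Readout is single-cell nuclear symmetric-dimethylarginine immunofluorescence (Alexa488), normalized to DMSO-treated cells. Compounds were applied to MCF-7 cells for 3 days at 37 °C, top concentration 10000 nM in 1:3 steps over ten points; curves fitted with 4-parameter robust fit.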
# [3] = biological target: T1, Full-length (FL)-PRMT5-MEP50 enzyme complex; assay: PRMT5-MEP50 Enzyme Methylation Assay (Version A); type: biochemical
# Procedure, shortened: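 Compound was pre-incubated with enzyme for 60 min, then reacted 150 min at 37° C. at final 1.0 nM PRMT5-MEP50, 15 μM SAM and 75 nM biotinylated H4R3(Me1) peptide, in 50 mM Bicine pH 8.0 with 1% DMSO. SAMDI mass-spectrometric readout of Me1→Me2 conversion. EC50 from 4- or 7-parameter regression.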
# [4] = second value of 7 parameter biphasic fit, read-out: Enzyme Methylation Assay Version B (EC50 2)
# [5] = single EC50 = 4 parameter single site sigmoidal fit, EC50 1 = first value of 7 parameter biphasic fit, read-out: Enzyme Methylation Assay Version B (EC50 or EC50 1)
# [6] = single EC50 = 4 parameter single site sigmoidal fit, EC50 1 = first value of 7 parameter biphasic fit, read-out: Enzyme Methylation Assay Version A (EC50 or EC50 1)
# [7] = second value of 7 parameter biphasic fit, read-out: Enzyme Methylation Assay Version A (EC50 2)
# T1 sequence (O14744 whole entry): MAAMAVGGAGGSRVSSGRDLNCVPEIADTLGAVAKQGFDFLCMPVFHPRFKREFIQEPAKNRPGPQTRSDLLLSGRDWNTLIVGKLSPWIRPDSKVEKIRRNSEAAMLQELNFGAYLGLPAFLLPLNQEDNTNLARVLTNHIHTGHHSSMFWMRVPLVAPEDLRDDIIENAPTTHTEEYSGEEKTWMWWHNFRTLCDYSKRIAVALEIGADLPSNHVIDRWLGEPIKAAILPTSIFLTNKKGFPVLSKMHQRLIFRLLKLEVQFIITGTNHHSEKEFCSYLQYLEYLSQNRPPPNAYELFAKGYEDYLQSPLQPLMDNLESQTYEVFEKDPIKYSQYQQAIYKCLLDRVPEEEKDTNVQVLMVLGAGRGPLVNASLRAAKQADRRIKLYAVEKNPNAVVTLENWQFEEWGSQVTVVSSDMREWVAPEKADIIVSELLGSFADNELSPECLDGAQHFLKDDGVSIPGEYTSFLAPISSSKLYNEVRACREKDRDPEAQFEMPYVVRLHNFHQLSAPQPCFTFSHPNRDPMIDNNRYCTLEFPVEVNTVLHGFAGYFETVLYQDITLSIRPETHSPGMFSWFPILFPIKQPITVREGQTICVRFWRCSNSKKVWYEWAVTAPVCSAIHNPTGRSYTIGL
# T1 sequence (Q9BQA1 whole entry partner): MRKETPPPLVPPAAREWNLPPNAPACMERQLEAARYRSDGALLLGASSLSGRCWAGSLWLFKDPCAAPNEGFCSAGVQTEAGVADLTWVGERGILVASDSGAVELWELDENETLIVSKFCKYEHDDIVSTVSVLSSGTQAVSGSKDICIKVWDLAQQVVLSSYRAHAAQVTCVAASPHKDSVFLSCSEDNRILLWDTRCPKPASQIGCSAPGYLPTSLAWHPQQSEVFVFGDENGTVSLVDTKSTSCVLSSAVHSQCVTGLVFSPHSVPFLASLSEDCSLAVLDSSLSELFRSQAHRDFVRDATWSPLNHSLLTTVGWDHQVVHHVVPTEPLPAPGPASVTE
EC50 [2],"EC50 ([2]; Homo sapiens, MCF7, 72 h)","EC50 [3, 6]","EC50 [3, 7]",Compound,"EC50 [1, 4]","EC50 [1, 5]"
,6.31 nM,0.977 nM,,"CO[C@H](C)c1cc(-c2conc2C)cn2cc(C(=O)N3CC[C@]4(Cc5ccccc5CN4)[C@H](O)C3)nc12 [Example 246, [(3R,3′R)-3′-hydroxy-1,4-dihydro-1′H,2H-spiro[isoquinoline-3,4′-piperidin]-1′-yl]{8-[(1R)-1-methoxyethyl]-6-(3-methyl-4-isoxazolyl)imidazo[1,2-a]pyridin-2-yl}methanone]",,
,75.3 nM,0.661 nM,646 nM,"CO[C@H](C)c1cc(CN2CCCC2)cn2cc(C(=O)N3CC[C@]4(Cc5ccccc5CN4)[C@H](O)C3)nc12 [Example 247, [(3R,3′R)-3′-hydroxy-1,4-dihydro-1′H,2H-spiro[isoquinoline-3,4′-piperidin]-1′-yl]{8-[(1R)-1-methoxyethyl]-6-(1-pyrrolidinylmethyl)imidazo[1,2-a]pyridin-2-yl}methanone]",,
,1730 nM,610 nM,,"COCc1nc(C)cn2cc(C(=O)N3CC[C@]4(Cc5ccccc5CN4)[C@H](O)C3)nc12 [Example 250, [(3R,3′R)-3′-hydroxy-1,4-dihydro-1′H,2H-spiro[isoquinoline-3,4′-piperidin]-1′-yl][8-(methoxymethyl)-6-methylimidazo[1,2-a]pyrazin-2-yl]methanone]",,
,1850 nM,547 nM,,"COc1nc2nc(C(=O)N3CC[C@]4(Cc5ccccc5CN4)[C@H](O)C3)cn2cc1C1CC1 [Example 251, (6-cyclopropyl-7-methoxyimidazo[1,2-a]pyrimidin-2-yl)[(3R,3′R)-3′-hydroxy-1,4-dihydro-1′H,2H-spiro[isoquinoline-3,4′-piperidin]-1′-yl]methanone]",,
,680 nM,11.7 nM,7080 nM,"Cc1cn2cc(C(=O)N3CC[C@]4(Cc5ccccc5CN4)[C@H](O)C3)nc2c(Cl)n1 [Example 252, (8-chloro-6-methylimidazo[1,2-a]pyrazin-2-yl)[(3R,3′R)-3′-hydroxy-1,4-dihydro-1′H,2H-spiro[isoquinoline-3,4′-piperidin]-1′-yl]methanone]",,
,6.47 nM,0.929 nM,733 nM,"CC1OC(=O)Nc2cc(C(=O)N3CC[C@]4(Cc5ccccc5CN4)[C@H](O)C3)ccc21 (stereo partly drawn) [compound 171, 7-{[(3R,3′R)-3′-hydroxy-1,4-dihydro-1′H,2H-spiro[isoquinoline-3,4′-piperidin]-1′-yl]carbonyl}-4-methyl-1,4-dihydro-2H-3,1-benzoxazin-2-one]",,

# More lines, now with the values behind:
Compound,EC50 [2],"EC50 ([2]; Homo sapiens, MCF7, 72 h)","EC50 [3, 6]","EC50 [3, 7]","EC50 [1, 4]","EC50 [1, 5]"
"CCOc1cc(C(=O)N2C3CCC2COC3)ccc1C(=O)N1CCC2(Cc3ccccc3CN2)C(O)C1 (single isomer, unassigned) [Example 86, A diastereomer of {3-ethoxy-4-[(3′-hydroxy-1,4-dihydro-1′H,2H-spiro[isoquinoline-3,4′-piperidin]-1′-yl)carbonyl]phenyl}(3-oxa-8-azabicyclo[3.2.1]oct-8-yl)methanone]",1470 nM,,,,28800 nM,82.2 nM
"CCOc1cc(C(=O)N2C3CCC2COC3)ccc1C(=O)N1CCC2(Cc3ccccc3CN2)C(O)C1 (single isomer, unassigned) [Example 87, A diastereomer of {3-ethoxy-4-[(3′-hydroxy-1,4-dihydro-1′H,2H-spiro[isoquinoline-3,4′-piperidin]-1′-yl)carbonyl]phenyl}(3-oxa-8-azabicyclo[3.2.1]oct-8-yl)methanone]",9.16 nM,,,,671 nM,3.54 nM
"CCOc1cc(C(=O)N2C3CCC2COC3)ccc1C(=O)N1CCC2(Cc3ccccc3CN2)C(O)C1 (single isomer, unassigned) [Example 88, A diastereomer of {3-ethoxy-4-[(3′-hydroxy-1,4-dihydro-1′H,2H-spiro[isoquinoline-3,4′-piperidin]-1′-yl)carbonyl]phenyl}(3-oxa-8-azabicyclo[3.2.1]oct-8-yl)methanone]",,4290 nM,,,,964 nM
"CCOc1cc(C(=O)N2C3CCC2COC3)ccc1C(=O)N1CCC2(Cc3ccccc3CN2)C(O)C1 (single isomer, unassigned) [Example 89, A diastereomer of {3-ethoxy-4-[(3′-hydroxy-1,4-dihydro-1′H,2H-spiro[isoquinoline-3,4′-piperidin]-1′-yl)carbonyl]phenyl}(3-oxa-8-azabicyclo[3.2.1]oct-8-yl)methanone]",6.88 nM,,,,1980 nM,4.81 nM
"CC(=O)N1CCC(Nc2cc(C(=O)N3CCC4(Cc5ccccc5CN4)C(O)C3)ncn2)CC1 (single isomer, unassigned) [Example 90, A diastereomer of 1-[4-({6-[(3′-hydroxy-1,4-dihydro-1′H,2H-spiro[isoquinoline-3,4′-piperidin]-1′-yl)carbonyl]-4-pyrimidinyl}amino)-1-piperidinyl]ethanone]",≥ 10000 nM,,,,,206 nM
"CC(=O)N1CCC(Nc2cc(C(=O)N3CCC4(Cc5ccccc5CN4)C(O)C3)ncn2)CC1 (single isomer, unassigned) [Example 91, A diastereomer of 1-[4-({6-[(3′-hydroxy-1,4-dihydro-1′H,2H-spiro[isoquinoline-3,4′-piperidin]-1′-yl)carbonyl]-4-pyrimidinyl}amino)-1-piperidinyl]ethanone]",305 nM,,,,513 nM,1.65 nM
"CC(=O)N1CCC(Nc2cc(C(=O)N3CCC4(Cc5ccccc5CN4)C(O)C3)ncn2)CC1 (single isomer, unassigned) [Example 92, A diastereomer of 1-[4-({6-[(3′-hydroxy-1,4-dihydro-1′H,2H-spiro[isoquinoline-3,4′-piperidin]-1′-yl)carbonyl]-4-pyrimidinyl}amino)-1-piperidinyl]ethanone]",≥ 10000 nM,,,,,944 nM
"CO[C@H](C)c1cc(-c2ccnn2C(C)C)cn2cc(C(=O)N3CC[C@]4(Cc5ccccc5CN4)[C@H](O)C3)nc12 [Example 243, [(3R,3′R)-3′-hydroxy-1,4-dihydro-1′H,2H-spiro[isoquinoline-3,4′-piperidin]-1′-yl]{6-(1-isopropyl-1H-pyrazol-5-yl)-8-[(1R)-1-methoxyethyl]imidazo[1,2-a]pyridin-2-yl}methanone]",,3.59 nM,1.17 nM,,,
"CO[C@H](C)c1cc(-c2sc(C)nc2C)cn2cc(C(=O)N3CC[C@]4(Cc5ccccc5CN4)[C@H](O)C3)nc12 [Example 244, {6-(2,4-dimethyl-1,3-thiazol-5-yl)-8-[(1R)-1-methoxyethyl]imidazo[1,2-a]pyridin-2-yl}[(3R,3′R)-3′-hydroxy-1,4-dihydro-1′H,2H-spiro[isoquinoline-3,4′-piperidin]-1′-yl]methanone]",,1.68 nM,0.675 nM,,,
"CO[C@H](C)c1cc(-c2cnn(C)c2C)cn2cc(C(=O)N3CC[C@]4(Cc5ccccc5CN4)[C@H](O)C3)nc12 [Example 245, {6-(1,5-dimethyl-1H-pyrazol-4-yl)-8-[(1R)-1-methoxyethyl]imidazo[1,2-a]pyridin-2-yl}[(3R,3′R)-3′-hydroxy-1,4-dihydro-1′H,2H-spiro[isoquinoline-3,4′-piperidin]-1′-yl]methanone]",,2.65 nM,1.24 nM,,,
"A diastereomer of [(3R,3′R)-3′- hydroxy-1,4-dihydro-1′H,2H- spiro[isoquinoline-3,4′-piperidin]-1′- yl][6-isopropyl-8-(1- methoxyethyl)imidazo[1,2- a]pyridin-2-yl]methanone [Example 85]",115 nM,,5.6 nM,3060 nM,,
